In patent publication US20060069132A1, “Azolecarboxamide herbicides” (priority 2004, published 2006):

Experiments:
velvetleaf = test: Test B pre-/postemergence herbicide test; assay type: in vivo, Abutilon theophrasti; details: for Plant response rating (0 to 100 scale), Velvetleaf: 0 is no effect, 100 is complete control, preemergence
Method in brief: (§1)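 Plants compared with untreated controls 13–15 days post-treatment and given a visual 0–100 injury score. Applications: preemergence to seeds; postemergence at 1- to 4-leaf (2–18 cm); paddy species flooded, 2-leaf stage. Vehicle non-phytotoxic, surfactant included.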

pigweed = test: Test B pre-/postemergence herbicide test; assay type: in vivo, Amaranthus retroflexus; details: for Plant response rating (0 to 100 scale), Pigweed: 0 is no effect, 100 is complete control, preemergence
Method in brief: as §1

barnyardgrass [1] = test: Test B flooded paddy test; assay type: in vivo, Echinochloa crus-galli; details: scale 0 to 100 (0 no effect, 100 complete control)
Method in brief: (§2)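 Each value is a visual 0–100 response rating taken against controls 13 to 15 days after treatment in the greenhouse. Plants received formulated chemical postemergence at the 1- to 4-leaf stage or, in flooded paddy, at the 2-leaf stage.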

cocklebur = test: Test B pre-/postemergence herbicide test; assay type: in vivo, Xanthium strumarium; details: for Plant response rating (0 to 100 scale), Cocklebur: 0 is no effect, 100 is complete control, preemergence
Method in brief: (§3)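 Evaluation is visual, comparing treated with control plants on a scale where 0 means no effect and 100 means full control. Treatments were preemergence, or postemergence on seedlings 2–18 cm tall, and held 13–15 days in the greenhouse.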

Surinam grass = test: Test B pre-/postemergence herbicide test; assay type: in vivo, Urochloa decumbens; details: for Plant response rating (0 to 100 scale), Surinam Grass: 0 is no effect, 100 is complete control, preemergence
Method in brief: as §1

ducksalad = test: Test B flooded paddy test; assay type: in vivo, Heteranthera limosa; details: scale 0 to 100 (0 no effect, 100 complete control)
Method in brief: as §2

large crabgrass = test: Test B pre-/postemergence herbicide test; assay type: in vivo, Digitaria sanguinalis; details: for Plant response rating (0 to 100 scale), Crabgrass, Large: 0 is no effect, 100 is complete control, preemergence
Method in brief: as §1

[2] = test system: small flower umbrella sedge; test: Test B flooded paddy test; assay type: in vivo, Cyperus difformis; details: scale 0 to 100 (0 no effect, 100 complete control)
Method in brief: as §2

wheat = test: Test B postemergence herbicide test; assay type: in vivo, Triticum aestivum; set-up: key to Wheat plant response rating: 0 = no effect, 100 = complete control
Method in brief: (§4)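 Greenhouse test; postemergence application to plants at 1–4 leaves (2–18 cm); paddy species at 2 leaves; evaluated visually vs controls at 13–15 days; scale 0–100 (100 = complete control).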

rice = test: Test B flooded paddy test; assay type: in vivo, Oryza sativa; details: scale 0 to 100 (0 no effect, 100 complete control)
Method in brief: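 Formulated test chemicals went onto postemergence plants measuring 2 to 18 cm, at one to four leaves. For the paddy assay, species had reached two leaves. Scoring took place 13–15 days later by eye, relative to untreated plants, using 0 for no effect up to 100 for full control.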

blackgrass = test: Test B postemergence herbicide test; assay type: in vivo, Alopecurus myosuroides
Method in brief: as §2

morningglory = test: Test B pre-/postemergence herbicide test; assay type: in vivo, Ipomoea coccinea; details: for Plant response rating (0 to 100 scale), Morningglory: 0 is no effect, 100 is complete control, preemergence
Method in brief: as §3

barnyardgrass [3] = test: Test B pre-/postemergence herbicide test; assay type: in vivo, Echinochloa crus-galli; details: for Plant response rating (0 to 100 scale), Barnyardgrass: 0 is no effect, 100 is complete control, preemergence; for Barnyardgrass plant response rating: Postemergence, scale 0 (no effect) to 100 (complete control)
Method in brief: as §3

wild oat = test: Test B postemergence herbicide test; assay type: in vivo, Avena fatua
Method in brief: as §4

lambsquarters = test: Test B pre-/postemergence herbicide test; assay type: in vivo, Chenopodium album; details: for Plant response rating (0 to 100 scale), Lambsquarters: 0 is no effect, 100 is complete control, preemergence
Method in brief: as §1

giant foxtail = test: Test B pre-/postemergence herbicide test; assay type: in vivo, Setaria faberi; details: for Plant response rating (0 to 100 scale), Foxtail, Giant: 0 is no effect, 100 is complete control, preemergence
Method in brief: as §1

corn = test: Test B pre-/postemergence herbicide test; assay type: in vivo, Zea mays; details: for Plant response rating (0 to 100 scale), Corn: 0 is no effect, 100 is complete control, preemergence
Method in brief: as §1

[4] = Postemergence, 500 g ai/ha, scale 0 (no effect) to 100 (complete control)
[5] = postemergence, 125 g ai/ha, scale 0 to 100
[6] = 500 g ai/ha, scale 0 to 100, 0 no effect, 100 complete control, preemergence

## CCNC(=O)c1cncc(NC(=O)c2nn(C(C)(C)C)nc2C)c1 [Compound 427]
velvetleaf; 125 g ai/ha
  Plant response rating (0 to 100 scale), Velvetleaf: 0
velvetleaf; [4]
  Velvetleaf plant response rating: 30
velvetleaf; [5]
  Velvetleaf plant response rating: 10
pigweed; 125 g ai/ha
  Plant response rating (0 to 100 scale), Pigweed: 30
pigweed; [4]
  Pigweed plant response rating: 40
pigweed; [5]
  Pigweed plant response rating: 20
Barnyardgrass [1]; 1000 g ai/ha
  Barnyardgrass plant response rating: 0
cocklebur; 125 g ai/ha
  Plant response rating (0 to 100 scale), Cocklebur: 0
cocklebur; [4]
  Cocklebur plant response rating: 10
cocklebur; [5]
  Cocklebur plant response rating: 10
Surinam grass; 125 g ai/ha
  Plant response rating (0 to 100 scale), Surinam Grass: 0
Surinam grass; [4]
  Surinam Grass plant response rating: 10
Surinam grass; [5]
  Surinam Grass plant response rating: 0
ducksalad; 1000 g ai/ha
  Ducksalad plant response rating: 0
Large crabgrass; 125 g ai/ha
  Plant response rating (0 to 100 scale), Crabgrass, Large: 0
Large crabgrass; [4]
  Crabgrass, Large plant response rating: 30
Large crabgrass; [5]
  Crabgrass, Large plant response rating: 0
[2]; 1000 g ai/ha
  Sedge, Umbrella plant response rating: 0
wheat; [6]
  Wheat plant response rating: 0
wheat; [4]
  Wheat plant response rating: 0
wheat; [5]
  Wheat plant response rating: 0
rice; 1000 g ai/ha
  Rice plant response rating: 0
blackgrass; [4]
  Blackgrass plant response rating: 20
blackgrass; [5]
  Blackgrass plant response rating: 0
morningglory; 125 g ai/ha
  Plant response rating (0 to 100 scale), Morningglory: 0
morningglory; [4]
  Morningglory plant response rating: 30
morningglory; [5]
  Morningglory plant response rating: 20
Barnyardgrass [3]; 125 g ai/ha
  Plant response rating (0 to 100 scale), Barnyardgrass: 0
  Barnyardgrass plant response rating: 0
Barnyardgrass [3]; 500 g ai/ha
  Barnyardgrass plant response rating: 0
Wild oat; [4]
  Oat, Wild plant response rating: 0
Wild oat; [5]
  Oat, Wild plant response rating: 0
lambsquarters; 125 g ai/ha
  Plant response rating (0 to 100 scale), Lambsquarters: 10
lambsquarters; [4]
  Lambsquarters plant response rating: 40
lambsquarters; [5]
  Lambsquarters plant response rating: 10
Giant foxtail; 125 g ai/ha
  Plant response rating (0 to 100 scale), Foxtail, Giant: 0
Giant foxtail; [4]
  Foxtail, Giant plant response rating: 10
Giant foxtail; [5]
  Foxtail, Giant plant response rating: 0
corn; 125 g ai/ha
  Plant response rating (0 to 100 scale), Corn: 0
corn; [4]
  Corn plant response rating: 0
corn; [5]
  Corn plant response rating: 0

## CCN(CC)C(=O)c1cncc(NC(=O)c2nn(C(C)(C)C)nc2C)c1 [Compound 428]
velvetleaf; 125 g ai/ha
  Plant response rating (0 to 100 scale), Velvetleaf: 0
velvetleaf; [4]
  Velvetleaf plant response rating: 20
velvetleaf; [5]
  Velvetleaf plant response rating: 10
pigweed; 125 g ai/ha
  Plant response rating (0 to 100 scale), Pigweed: 30
pigweed; [4]
  Pigweed plant response rating: 30
pigweed; [5]
  Pigweed plant response rating: 20
Barnyardgrass [1]; 1000 g ai/ha
  Barnyardgrass plant response rating: 0
cocklebur; 125 g ai/ha
  Plant response rating (0 to 100 scale), Cocklebur: 0
cocklebur; [4]
  Cocklebur plant response rating: 10
cocklebur; [5]
  Cocklebur plant response rating: 0
Surinam grass; 125 g ai/ha
  Plant response rating (0 to 100 scale), Surinam Grass: 0
Surinam grass; [4]
  Surinam Grass plant response rating: 20
Surinam grass; [5]
  Surinam Grass plant response rating: 10
ducksalad; 1000 g ai/ha
  Ducksalad plant response rating: 0
Large crabgrass; 125 g ai/ha
  Plant response rating (0 to 100 scale), Crabgrass, Large: 0
Large crabgrass; [4]
  Crabgrass, Large plant response rating: 20
Large crabgrass; [5]
  Crabgrass, Large plant response rating: 10
[2]; 1000 g ai/ha
  Sedge, Umbrella plant response rating: 0
wheat; [6]
  Wheat plant response rating: 0
wheat; [4]
  Wheat plant response rating: 0
wheat; [5]
  Wheat plant response rating: 0
rice; 1000 g ai/ha
  Rice plant response rating: 30
blackgrass; [4]
  Blackgrass plant response rating: 0
blackgrass; [5]
  Blackgrass plant response rating: 0
morningglory; 125 g ai/ha
  Plant response rating (0 to 100 scale), Morningglory: 0
morningglory; [4]
  Morningglory plant response rating: 30
morningglory; [5]
  Morningglory plant response rating: 20
Barnyardgrass [3]; 125 g ai/ha
  Plant response rating (0 to 100 scale), Barnyardgrass: 0
  Barnyardgrass plant response rating: 0
Barnyardgrass [3]; 500 g ai/ha
  Barnyardgrass plant response rating: 10
Wild oat; [4]
  Oat, Wild plant response rating: 0
Wild oat; [5]
  Oat, Wild plant response rating: 0
lambsquarters; 125 g ai/ha
  Plant response rating (0 to 100 scale), Lambsquarters: 0
lambsquarters; [4]
  Lambsquarters plant response rating: 40
lambsquarters; [5]
  Lambsquarters plant response rating: 10
Giant foxtail; 125 g ai/ha
  Plant response rating (0 to 100 scale), Foxtail, Giant: 0
Giant foxtail; [4]
  Foxtail, Giant plant response rating: 10
Giant foxtail; [5]
  Foxtail, Giant plant response rating: 10
corn; 125 g ai/ha
  Plant response rating (0 to 100 scale), Corn: 0
corn; [4]
  Corn plant response rating: 10
corn; [5]
  Corn plant response rating: 0

## CCOC(=O)c1cccc(NC(=O)c2nn(C(C)(C)C)nc2Br)c1 [Compound 432]
velvetleaf; 125 g ai/ha
  Plant response rating (0 to 100 scale), Velvetleaf: 0
velvetleaf; [4]
  Velvetleaf plant response rating: 60
velvetleaf; [5]
  Velvetleaf plant response rating: 50
pigweed; 125 g ai/ha
  Plant response rating (0 to 100 scale), Pigweed: 0
pigweed; [4]
  Pigweed plant response rating: 10
pigweed; [5]
  Pigweed plant response rating: 0
Barnyardgrass [1]; 125 g ai/ha
  Barnyardgrass plant response rating: 30
cocklebur; 125 g ai/ha
  Plant response rating (0 to 100 scale), Cocklebur: 0
cocklebur; [4]
  Cocklebur plant response rating: 70
cocklebur; [5]
  Cocklebur plant response rating: 40
Surinam grass; 125 g ai/ha
  Plant response rating (0 to 100 scale), Surinam Grass: 10
Surinam grass; [4]
  Surinam Grass plant response rating: 70
Surinam grass; [5]
  Surinam Grass plant response rating: 10
ducksalad; 125 g ai/ha
  Ducksalad plant response rating: 30
Large crabgrass; 125 g ai/ha
  Plant response rating (0 to 100 scale), Crabgrass, Large: 30
Large crabgrass; [4]
  Crabgrass, Large plant response rating: 30
Large crabgrass; [5]
  Crabgrass, Large plant response rating: 10
[2]; 125 g ai/ha
  Sedge, Umbrella plant response rating: 80
wheat; [6]
  Wheat plant response rating: 0
wheat; [4]
  Wheat plant response rating: 60
wheat; [5]
  Wheat plant response rating: 50
rice; 125 g ai/ha
  Rice plant response rating: 0
blackgrass; [4]
  Blackgrass plant response rating: 40
blackgrass; [5]
  Blackgrass plant response rating: 40
morningglory; 125 g ai/ha
  Plant response rating (0 to 100 scale), Morningglory: 0
morningglory; [4]
  Morningglory plant response rating: 30
morningglory; [5]
  Morningglory plant response rating: 20
Barnyardgrass [3]; 125 g ai/ha
  Plant response rating (0 to 100 scale), Barnyardgrass: 10
  Barnyardgrass plant response rating: 20
Barnyardgrass [3]; 500 g ai/ha
  Barnyardgrass plant response rating: 60
Wild oat; [4]
  Oat, Wild plant response rating: 60
Wild oat; [5]
  Oat, Wild plant response rating: 50
lambsquarters; 125 g ai/ha
  Plant response rating (0 to 100 scale), Lambsquarters: 0
lambsquarters; [4]
  Lambsquarters plant response rating: 30
lambsquarters; [5]
  Lambsquarters plant response rating: 0
Giant foxtail; 125 g ai/ha
  Plant response rating (0 to 100 scale), Foxtail, Giant: 40
Giant foxtail; [4]
  Foxtail, Giant plant response rating: 40
Giant foxtail; [5]
  Foxtail, Giant plant response rating: 0
corn; 125 g ai/ha
  Plant response rating (0 to 100 scale), Corn: 0
corn; [4]
  Corn plant response rating: 30
corn; [5]
  Corn plant response rating: 30
